Experimental findings from ChEMBL document CHEMBL6087397, “H2S-releasing oridonin derivatives with improved antitumor activity by inhibiting the PI3K/AKT pathway” (Bioorg Med Chem, 2024) are described below.

Some results are limits rather than exact numbers.

One assay has as its system A549. In words: Antiproliferative activity against human A549 cells assessed as inhibition of cell proliferation incubated for 48 hrs by CCK-8 assay. The note with it: A549, 48 h. It is filed as functional, cell-based. On the technique in general: Tetrazolium assays rely on reduction of a dye to a coloured formazan, in cell work by metabolically active cells.
In another assay the test system is MCF7. In words: Antiproliferative activity against human MCF7 cells assessed as inhibition of cell proliferation incubated for 48 hrs by CCK-8 assay. It is filed as functional, cell-based. The following applies: MCF7, 48 h.

On to `C=C1C(=O)[C@]23[C@H](OC(=O)CCCC(=O)OCC#CCOC(=O)c4ccc(N=C=S)cc4)[C@H]1CC[C@H]2[C@@]12CO[C@]3(O)[C@@H](O)[C@@H]1C(C)(C)CCC2=O`, for which the half-maximal inhibitory concentration (IC50) (in general, the midpoint of a concentration-inhibition curve) in the assay on A549 was over 40 µM; in the assay with MCF7 it was 14 µM.

Regarding `C=C1C(=O)[C@]23[C@H](OC(=O)CCCC(=O)OCCOC(=O)c4ccc(N=C=S)cc4)[C@H]1CC[C@H]2[C@@]12CO[C@]3(O)[C@@H](O)[C@@H]1C(C)(C)CC[C@@H]2OC(C)=O`, the IC50 in the assay with A549 was over 40 µM; in the assay on MCF7, 8.7 µM.

In the case of `C=C1C(=O)[C@]23[C@H](OC(=O)CCCC(=O)OCc4ccc(-c5nc(=O)ss5)cc4)[C@H]1CC[C@H]2[C@@]12CO[C@]3(O)[C@@H](O)[C@@H]1C(C)(C)CC[C@@H]2OC(C)=O`, the half-maximal inhibitory concentration (IC50) came to 14.3 µM in the assay with A549 and 13 µM in the assay on MCF7.

With `C=C1C(=O)[C@]23[C@H](OC(=O)CCC(=O)OCCCCOC(=O)c4ccc(N=C=S)cc4)[C@H]1CC[C@H]2[C@@]12CO[C@]3(O)[C@@H](O)[C@@H]1C(C)(C)CC[C@@H]2O`, the IC50 with A549 and with MCF7 was over 40 µM each time.

Take `C=C1C(=O)[C@]23[C@H](OC(=O)CCCC(=O)OCc4ccc(-c5nc(=O)ss5)cc4)[C@H]1CC[C@H]2[C@@]12CO[C@]3(O)[C@@H](O)[C@@H]1C(C)(C)CC[C@@H]2O`: the IC50 with A549 and in the assay with MCF7 was over 40 µM each time.

Regarding `C=C1C(=O)[C@]23[C@H](OC(=O)CCCC(=O)OCCOC(=O)c4ccc(N=C=S)cc4)[C@H]1CC[C@H]2[C@@]12CO[C@]3(O)[C@@H](O)[C@@H]1C(C)(C)CC[C@@H]2O`, the IC50 in the assay on A549 and in the assay on MCF7 was over 40 µM each time.

With `O=c1[nH]cc(F)c(=O)[nH]1` [FLUOROURACIL], the concentration for half-maximal inhibition (IC50) in the assay on A549 was determined as 11.9 µM; with MCF7, 25.1 µM.

Consider `C=C1C(=O)[C@]23[C@H](OC(=O)CCCC(=O)OCCOC(=O)c4ccc(N=C=S)cc4)[C@H]1CC[C@H]2[C@@]12CO[C@]3(O)[C@@H](O)[C@@H]1C(C)(C)CCC2=O`, for which the concentration for half-maximal inhibition (IC50) is 32.4 µM in the assay on A549 and 19.2 µM in the assay with MCF7.

`C=C1C(=O)[C@]23[C@H](OC(=O)CCCC(=O)OCC#CCOC(=O)c4ccc(N=C=S)cc4)[C@H]1CC[C@H]2[C@@]12CO[C@]3(O)[C@@H](O)[C@@H]1C(C)(C)CC[C@@H]2OC(C)=O`: the half-maximal inhibitory concentration (IC50) in the assay on A549 was over 40 µM; in the assay with MCF7, 12.8 µM.

As for `C=C1C(=O)[C@]23[C@H](OC(=O)CCC(=O)OCCOC(=O)c4ccc(N=C=S)cc4)[C@H]1CC[C@H]2[C@@]12CO[C@]3(O)[C@@H](O)[C@@H]1C(C)(C)CCC2=O`, the values for the half-maximal inhibitory concentration (IC50) in the assay with A549 and with MCF7 were 32.2 µM and 16.7 µM, respectively.

As for `C=C1C(=O)[C@]23[C@H](OC(=O)CCC(=O)OCCCCOC(=O)c4ccc(N=C=S)cc4)[C@H]1CC[C@H]2[C@@]12CO[C@]3(O)[C@@H](O)[C@@H]1C(C)(C)CC[C@@H]2OC(C)=O`, the IC50 with A549 is over 40 µM; with MCF7, 11.6 µM.

On to `C=C1C(=O)[C@]23[C@H](OC(=O)CCC(=O)OCCCCOC(=O)c4ccc(N=C=S)cc4)[C@H]1CC[C@H]2[C@@]12CO[C@]3(O)[C@@H](O)[C@@H]1C(C)(C)CCC2=O`, for which the IC50 is 26.6 µM with A549 and 8.08 µM with MCF7.

Consider `C=C1C(=O)[C@]23[C@H](OC(=O)c4ccc(N=C=S)cc4)[C@H]1CC[C@H]2[C@@]12CO[C@]3(O)[C@@H](O)[C@@H]1C(C)(C)CC[C@@H]2OC(C)=O`, for which the IC50 was found to be 28.1 µM with A549 and 13 µM with MCF7.

Take `C=C1C(=O)[C@]23[C@H](OC(=O)CCCC(=O)OCCCOC(=O)c4ccc(N=C=S)cc4)[C@H]1CC[C@H]2[C@@]12CO[C@]3(O)[C@@H](O)[C@@H]1C(C)(C)CC[C@@H]2O`: the IC50 in the assay on A549 and in the assay on MCF7 was over 40 µM in each case.

Regarding `C=C1C(=O)[C@]23[C@H](OC(=O)CCC(=O)Oc4ccc(-c5nc(=O)ss5)cc4)[C@H]1CC[C@H]2[C@@]12CO[C@]3(O)[C@@H](O)[C@@H]1C(C)(C)CC[C@@H]2OC(C)=O`, the half-inhibitory concentration (IC50) with A549 was determined as 15.2 µM; in the assay on MCF7 it was 15.4 µM.

Turning to `C=C1C(=O)[C@]23[C@H](OC(=O)c4ccc(N=C=S)cc4)[C@H]1CC[C@H]2[C@@]12CO[C@]3(O)[C@@H](O)[C@@H]1C(C)(C)CCC2=O`, the 50% inhibitory concentration (IC50) is 21.2 µM in the assay with A549 and 7.08 µM in the assay with MCF7.

As for `C=C1C(=O)[C@]23[C@H](OC(=O)CCC(=O)OCCCOC(=O)c4ccc(N=C=S)cc4)[C@H]1CC[C@H]2[C@@]12CO[C@]3(O)[C@@H](O)[C@@H]1C(C)(C)CC[C@@H]2OC(C)=O`, the concentration for half-maximal inhibition (IC50) with A549 was 24.9 µM; in the assay with MCF7, 8.45 µM.

Consider `C=C1C(=O)[C@]23[C@H](OC(=O)CCC(=O)Oc4ccc(-c5nc(=O)ss5)cc4)[C@H]1CC[C@H]2[C@@]12CO[C@]3(O)[C@@H](O)[C@@H]1C(C)(C)CCC2=O`, for which the concentration for half-maximal inhibition (IC50) worked out at 18.3 µM with A549 and 19.1 µM with MCF7.

Regarding `O=c1nc(-c2ccc(O)cc2)ss1`, the concentration for half-maximal inhibition (IC50) in the assay on A549 and in the assay with MCF7 was over 40 µM each time.

`C=C1C(=O)[C@]23[C@H](OC(=O)CCCC(=O)OCCCOC(=O)c4ccc(N=C=S)cc4)[C@H]1CC[C@H]2[C@@]12CO[C@]3(O)[C@@H](O)[C@@H]1C(C)(C)CCC2=O`: the values for the IC50 in the assay with A549 and in the assay with MCF7 were 23.2 µM and 8.43 µM, respectively.

For the compound `C=C1C(=O)[C@]23[C@H](OC(=O)CCCC(=O)OCCCCOC(=O)c4ccc(N=C=S)cc4)[C@H]1CC[C@H]2[C@@]12CO[C@]3(O)[C@@H](O)[C@@H]1C(C)(C)CC[C@@H]2O`, the IC50 in the assay on A549 and in the assay on MCF7 was over 40 µM in each case.

In the case of `C=C1C(=O)[C@]23[C@H](OC(=O)CCC(=O)OCCOC(=O)c4ccc(N=C=S)cc4)[C@H]1CC[C@H]2[C@@]12CO[C@]3(O)[C@@H](O)[C@@H]1C(C)(C)CC[C@@H]2OC(C)=O`, the values for the IC50 in the assay on A549 and in the assay on MCF7 were 21.2 µM and 8.8 µM, respectively.

As to `C=C1C(=O)[C@]23[C@H](OC(=O)CCC(=O)Oc4ccc(-c5nc(=O)ss5)cc4)[C@H]1CC[C@H]2[C@@]12CO[C@]3(O)[C@@H](O)[C@@H]1C(C)(C)CC[C@@H]2O`, the IC50 in the assay on A549 is 24.2 µM; with MCF7 it was over 40 µM.

Consider `C=C1C(=O)[C@]23[C@H](O)[C@H]1CC[C@H]2[C@@]12CO[C@@]3(O)[C@@H](O)[C@@H]1C(C)(C)CC[C@@H]2OC(C)=O`, for which the half-inhibitory concentration (IC50) in the assay on A549 was found to be 5.47 µM; in the assay on MCF7, 8.76 µM.

Take `C=C1C(=O)[C@]23[C@H](OC(=O)CCC(=O)OCC#CCOC(=O)c4ccc(N=C=S)cc4)[C@H]1CC[C@H]2[C@@]12CO[C@]3(O)[C@@H](O)[C@@H]1C(C)(C)CCC2=O`: the figures for the 50% inhibitory concentration (IC50) in the assay with A549 and in the assay on MCF7 were over 40 µM and 9.93 µM, respectively.

Take `C=C1C(=O)[C@]23[C@H](OC(=O)CCC(=O)OCCCOC(=O)c4ccc(N=C=S)cc4)[C@H]1CC[C@H]2[C@@]12CO[C@]3(O)[C@@H](O)[C@@H]1C(C)(C)CCC2=O`: the results for the IC50 with A549 and in the assay on MCF7 were 16.3 µM and 10.4 µM, respectively.

As for `C=C1C(=O)[C@]23[C@H](OC(=O)CCC(=O)OCCCOC(=O)c4ccc(N=C=S)cc4)[C@H]1CC[C@H]2[C@@]12CO[C@]3(O)[C@@H](O)[C@@H]1C(C)(C)CC[C@@H]2O`, the half-maximal inhibitory concentration (IC50) in the assay with A549 is 36.5 µM; with MCF7 it was over 40 µM.
